Data taken from the supplement of paper PMC10307832.

Legend:
Assay in all cases: relative viability (nuclei count vs DMSO), 5 days (fraction); higher = more cells survive
Elesclomol + Dasatinib = compound: CN(NC(=O)CC(=O)NN(C)C(=S)c1ccccc1)C(=S)c1ccccc1 [Elesclomol] + Cc1nc(Nc2ncc(C(=O)Nc3c(C)cccc3Cl)s2)cc(N2CCN(CCO)CC2)n1 [Dasatinib] (partner 0.075 µM)
Method in brief: (§1)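 One day after seeding in 1536-well plates, lung cancer cell lines were dosed by pin tool. Dosing was either single-drug or a fixed anchor-drug dose plus five library-drug doses (not always all listed) in √10 steps. After 5 days, nuclei were stained in one fix-and-stain step and counted on 4× images, and relative viability is the nuclei count of treated wells over that of vehicle wells, given as the median of duplicate plates.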

Elesclomol + Luminespib = compound: CN(NC(=O)CC(=O)NN(C)C(=S)c1ccccc1)C(=S)c1ccccc1 [Elesclomol] + CCNC(=O)c1noc(-c2cc(C(C)C)c(O)cc2O)c1-c1ccc(CN2CCOCC2)cc1 [Luminespib] (partner 0.01 µM)
Method in brief: as §1

Elesclomol + Foretinib = compound: CN(NC(=O)CC(=O)NN(C)C(=S)c1ccccc1)C(=S)c1ccccc1 [Elesclomol] + COc1cc2c(Oc3ccc(NC(=O)C4(C(=O)Nc5ccc(F)cc5)CC4)cc3F)ccnc2cc1OCCCN1CCOCC1 [Foretinib] (partner 0.25 µM)
Method in brief: as §1

Elesclomol + Phenformin = compound: CN(NC(=O)CC(=O)NN(C)C(=S)c1ccccc1)C(=S)c1ccccc1 [Elesclomol] + N=C(N)NC(=N)NCCc1ccccc1 [Phenformin] (partner 250 µM)
Method in brief: as §1

Elesclomol + OSI-027 = compound: CN(NC(=O)CC(=O)NN(C)C(=S)c1ccccc1)C(=S)c1ccccc1 [Elesclomol] + COc1cccc2cc(-c3nc([C@H]4CC[C@H](C(=O)O)CC4)n4ncnc(N)c34)[nH]c12 [OSI-027] (partner 0.5 µM)
Method in brief: as §1

Elesclomol + Tozasertib = compound: CN(NC(=O)CC(=O)NN(C)C(=S)c1ccccc1)C(=S)c1ccccc1 [Elesclomol] + Cc1cc(Nc2cc(N3CCN(C)CC3)nc(Sc3ccc(NC(=O)C4CC4)cc3)n2)n[nH]1 [Tozasertib] (partner 0.1 µM)
Method in brief: as §1

Elesclomol = compound: CN(NC(=O)CC(=O)NN(C)C(=S)c1ccccc1)C(=S)c1ccccc1 [Elesclomol]
Method in brief: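 Vehicle-anchored 1536-well plates of lung cancer cell lines, held overnight at 37 °C, were pinned with five library-drug doses (not always all listed) spaced by √10. No medium change followed over the next 5 days, after which the cells were fixed, permeabilised and Hoechst-stained together and imaged at 4×. Nuclei were counted with MetaXpress, and viability is treated-well nuclei over vehicle-well nuclei, taken as a median across plates. Plates passed with control CV below 25% and at least one doubling.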

## NCI-H1623
Elesclomol + Dasatinib; first compound 0.003162 µM
  relative viability: 0.499
Elesclomol + Dasatinib; first compound 0.01 µM
  relative viability: 0.464
Elesclomol + Dasatinib; first compound 0.03162 µM
  relative viability: 0.312
Elesclomol + Dasatinib; first compound 0.1 µM
  relative viability: 0.254
Elesclomol + Luminespib; first compound 0.003162 µM
  relative viability: 0.235
Elesclomol + Luminespib; first compound 0.01 µM
  relative viability: 0.216
Elesclomol + Luminespib; first compound 0.03162 µM
  relative viability: 0.251
Elesclomol + Luminespib; first compound 0.1 µM
  relative viability: 0.217
Elesclomol + Foretinib; first compound 0.003162 µM
  relative viability: 0.868
Elesclomol + Foretinib; first compound 0.01 µM
  relative viability: 0.526
Elesclomol + Foretinib; first compound 0.03162 µM
  relative viability: 0.422
Elesclomol + Foretinib; first compound 0.1 µM
  relative viability: 0.422
Elesclomol + Phenformin; first compound 0.003162 µM
  relative viability: 0.624
Elesclomol + Phenformin; first compound 0.01 µM
  relative viability: 0.552
Elesclomol + Phenformin; first compound 0.03162 µM
  relative viability: 0.539
Elesclomol + Phenformin; first compound 0.1 µM
  relative viability: 0.443
Elesclomol + OSI-027; first compound 0.003162 µM
  relative viability: 0.386
Elesclomol + OSI-027; first compound 0.01 µM
  relative viability: 0.353
Elesclomol + OSI-027; first compound 0.03162 µM
  relative viability: 0.347
Elesclomol + OSI-027; first compound 0.1 µM
  relative viability: 0.296
Elesclomol + Tozasertib; first compound 0.003162 µM
  relative viability: 0.392
Elesclomol + Tozasertib; first compound 0.01 µM
  relative viability: 0.417
Elesclomol + Tozasertib; first compound 0.03162 µM
  relative viability: 0.35
Elesclomol + Tozasertib; first compound 0.1 µM
  relative viability: 0.303
Elesclomol; 0.003162 µM
  relative viability: 0.775
Elesclomol; 0.01 µM
  relative viability: 0.462
Elesclomol; 0.03162 µM
  relative viability: 0.37
Elesclomol; 0.1 µM
  relative viability: 0.339
